Reference: paper PMC10444021, “Design and synthesis of new spirooxindole candidates and their selenium nanoparticles as potential dual Topo I/II inhibitors, DNA intercalators, and apoptotic inducers” (Journal of Enzyme Inhibition and Medicinal Chemistry, 2023)
≈ marks a conversion by molar mass, not a printed value.

Tests used:
A-549 = assay: MTT cytotoxicity, A-549; format: cell-based; settings: Homo sapiens, A549, mean ± SD
Experimental: (§1) The cytotoxic activities of the constructed members were assessed via the reported MTT method[49–52] (Supporting information).
(§2) The cytotoxic screening was performed using the MTT assay. […] Besides, the HCT-116 one was sensitive to only two samples, while the MCF7 was sensitive to one sample only. Two standard cytotoxic drugs: Dox and 5-fluorouracil (5-FU) were also applied on the same used cancer cell lines as references.

Caco-2 = assay: MTT cytotoxicity, Caco-2; format: cell-based; settings: Homo sapiens, mean ± SD
Experimental: as §1, §2

HCT-116 = assay: MTT cytotoxicity, HCT-116; format: cell-based; settings: Homo sapiens, mean ± SD
Experimental: as §1, §2

[1] = Cytotoxic effects on normal bone marrow cells; format: cell-based, mice; settings: mouse, mean ± SD
Experimental: as §1
The dose–response curves for the nanoform on each cell line are shown in the Supporting information, and the respective IC50s are shown in Table 3. The most promising cytotoxic samples were further investigated for their cytotoxic effects on normal mice bone marrow cells. The overall trending results were increasing the proliferation of the bone marrow cells at high concentrations of the samples, especially the 5b NPs nanoform sample, which reached up to 200% compared to the untreated cells. The dose–response curves on the bone marrow cells are represented in the Supporting information.

HepG2 = assay: MTT cytotoxicity, HepG2; format: cell-based; settings: Homo sapiens, mean ± SD
Experimental: as §1, §2

MCF7 = assay: MTT cytotoxicity, MCF7; format: cell-based; settings: Homo sapiens, mean ± SD
Experimental: as §1, §2

Topo II = Topo II inhibitory assay; format: biochemical
Experimental: (§3) The tested members were subjected to Topo I inhibitory activity evaluation using the previously reported method. While the Topo II inhibitory assay was done according to the method described by Patra et al.[55] (Supporting information).
(§4) Thus, compounds 5b and 7d in addition to their nano complexes 5b NPs and 7d NPs were evaluated for their enzyme inhibitory effects.

DNA = DNA intercalation assay (linear DNA formation); format: biochemical; settings: even at low concentrations; gel
Experimental: The reported procedure by Atwal et al. was our guide to test the DNA intercalating ability of our candidates[56] (Supporting information).
The ability of the designed members to intercalate onto the DNA molecules and increase the levels of Topo I–DNA as well as Topo II-DNA cleavage complexes by stabilising the enzymes–DNA covalent complexes were also assayed. Thus, the amount of linear DNA formed by compounds 5b and 7d, in addition to their nanoforms 5b NPs and 7d NPs, was measured. […] As so, the designed congeners were then considered promising DNA intercalating members (Figure 11).

Topo I = target: T1, Topo I (Homo sapiens, UniProt P11387); assay: Topo I inhibitory assay; format: biochemical
T1 sequence (P11387 1-765): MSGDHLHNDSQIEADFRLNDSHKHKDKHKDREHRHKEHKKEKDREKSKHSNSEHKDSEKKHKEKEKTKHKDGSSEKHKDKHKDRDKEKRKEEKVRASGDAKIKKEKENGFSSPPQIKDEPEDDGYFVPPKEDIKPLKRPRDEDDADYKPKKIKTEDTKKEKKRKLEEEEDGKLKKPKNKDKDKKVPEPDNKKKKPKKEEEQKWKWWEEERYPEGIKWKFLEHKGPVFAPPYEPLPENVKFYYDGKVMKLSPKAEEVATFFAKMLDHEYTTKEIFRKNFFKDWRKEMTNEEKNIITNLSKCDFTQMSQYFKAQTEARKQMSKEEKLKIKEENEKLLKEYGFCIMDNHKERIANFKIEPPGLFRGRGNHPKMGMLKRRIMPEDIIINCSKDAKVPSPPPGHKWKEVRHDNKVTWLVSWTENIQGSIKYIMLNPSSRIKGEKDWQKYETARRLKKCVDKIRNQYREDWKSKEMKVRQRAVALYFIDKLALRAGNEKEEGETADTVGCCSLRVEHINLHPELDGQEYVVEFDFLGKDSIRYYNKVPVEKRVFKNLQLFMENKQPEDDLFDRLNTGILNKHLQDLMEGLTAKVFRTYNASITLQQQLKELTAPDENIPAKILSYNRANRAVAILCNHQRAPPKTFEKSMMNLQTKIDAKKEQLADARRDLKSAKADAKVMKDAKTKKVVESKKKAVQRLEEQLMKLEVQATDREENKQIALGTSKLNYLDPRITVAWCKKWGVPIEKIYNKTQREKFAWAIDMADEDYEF
Experimental: as §3, §4

Compound: CCn1c2c(c(=O)[nH]c1=O)C1(C(=O)Nc3ccccc31)c1c(n(CC)c(=O)[nH]c1=O)N2 [Compound 3, 1′,9′-Diethyl-1′H-spiro[indoline-3,5′-pyrido[2,3-d:6,5-d′]dipyrimidine]-2,2′,4′,6′,8′(3′H,7′H,9′H,10′H)-pentaone]
- IC50 (A-549): 291 ± 16.4 µg/mL (≈ 689 µM)
- melting point: > 300 °C
- IC50 (Caco-2): 259 ± 9.4 µg/mL (≈ 614 µM)

Compound: O=c1[nH]cc(F)c(=O)[nH]1 [Compound 5-FU, 5-fluorouracil, reference compound]
- IC50 (A-549): 1.1 ± 0.1 µg/mL (≈ 8.46 µM)
- IC50 (HCT-116): 76.3 ± 6.8 µg/mL (≈ 587 µM)
- IC50 [1]: 103 ± 9.8 µg/mL (≈ 792 µM)
- IC50 (HepG2): 103 ± 9.8 µg/mL (≈ 792 µM)
- IC50 (Caco-2): 4.4 ± 0.3 µg/mL (≈ 33.8 µM)
- IC50 (MCF7): 39.3 ± 2.9 µg/mL (≈ 302 µM)

Compound: Cn1c2c(c(=O)[nH]c1=O)C1(C(=O)Nc3ccc([N+](=O)[O-])cc31)c1c(n(C)c(=O)[nH]c1=O)N2 [Compound 5a, 1′,9′-Dimethyl-5-nitro-1′H-spiro[indoline-3,5′-pyrido[2,3-d:6,5-d′]dipyrimidine]-2,2′,4′,6′,8′(3′H,7′H,9′H,10′H)-pentaone]
- IC50 (HepG2): 563 ± 25.5 µg/mL (≈ 1280 µM)
- melting point: > 300 °C
- IC50 (Caco-2): 207 ± 19.4 µg/mL (≈ 471 µM)

Compound: CCn1c2c(c(=O)[nH]c1=O)C1(C(=O)Nc3ccc([N+](=O)[O-])cc31)c1c(n(CC)c(=O)[nH]c1=O)N2 [Compound 5b, 1′,9′-Diethyl-5-nitro-1′H-spiro[indoline-3,5′-pyrido[2,3-d:6,5-d′]dipyrimidine]-2,2′,4′,6′,8′(3′H,7′H,9′H,10′H)-pentaone]
- IC50 (Topo II): 4470 nM
- IC50 (HepG2): 114 ± 10.1 µg/mL (≈ 243 µM)
- formation of linear DNA (DNA): considerable formation of linear DNA
- IC50 (Caco-2): 35.2 ± 4.1 µg/mL (≈ 75.3 µM)
- IC50 (Topo I): 651 nM

Compound: Cn1c2c(c(=O)[nH]c1=S)C1(C(=O)Nc3ccc([N+](=O)[O-])cc31)c1c(n(C)c(=S)[nH]c1=O)N2 [Compound 5c, 1′,9′-Dimethyl-5-nitro-2′,8′-dithioxo-2′,3′,8′,9′-tetrahydro-1′H-spiro[indoline-3,5′-pyrido[2,3-d:6,5-d′]dipyrimidine]-2,4′,6′(7′H,10′H)-trione]
- IC50 (A-549): 525 ± 50.6 µg/mL (≈ 1110 µM)
- IC50 (HCT-116): 186 ± 19.4 µg/mL (≈ 394 µM)
- IC50 (HepG2): 250 ± 19.3 µg/mL (≈ 531 µM)
- melting point: > 300 °C
- IC50 (Caco-2): 247 ± 12.5 µg/mL (≈ 525 µM)

Compound: O=C1Nc2ccc([N+](=O)[O-])cc2C12c1c(n(Cc3ccccc3)c(=O)[nH]c1=O)Nc1c2c(=O)[nH]c(=O)n1Cc1ccccc1 [Compound 5d, 1′,9′-Dibenzyl-5-nitro-1′H-spiro[indoline-3,5′-pyrido[2,3-d:6,5-d′]dipyrimidine]-2,2′,4′,6′,8′(3′H,7′H,9′H,10′H)-pentaone]
- IC50 (A-549): 279 ± 18.9 µg/mL (≈ 472 µM)
- IC50 (HepG2): 422 ± 22.8 µg/mL (≈ 713 µM)
- melting point: > 300 °C
- IC50 (Caco-2): 108 ± 10 µg/mL (≈ 183 µM)

Compound: O=C1Nc2ccc([N+](=O)[O-])cc2C12c1c([nH]c(=O)[nH]c1=O)Nc1[nH]c(=O)[nH]c(=O)c12 [Compound 5e, 5-Nitro-1′H-spiro[indoline-3,5′-pyrido[2,3-d:6,5-d′]dipyrimidine]-2,2′,4′,6′,8′(3′H,7′H,9′H,10′H)-pentaone]
- IC50 (HepG2): 147 ± 10.5 µg/mL (≈ 357 µM)
- melting point: > 300 °C
- IC50 (Caco-2): 233 ± 19.2 µg/mL (≈ 566 µM)

Compound: Cn1c2c(c(=O)[nH]c1=O)C1(C(=O)Nc3ccc(Cl)cc31)c1c(n(C)c(=O)[nH]c1=O)N2 [Compound 7a, 5-Chloro-1′,9′-dimethyl-1′H-spiro[indoline-3,5′-pyrido[2,3-d:6,5-d′]dipyrimidine]-2,2′,4′, 6′,8′(3′H,7′H,9′H,10′H)-pentaone]
- IC50 (A-549): 50.1 ± 5.9 µg/mL (≈ 117 µM)
- IC50 (HepG2): 120 ± 9.2 µg/mL (≈ 281 µM)
- IC50 (Caco-2): 113 ± 10.4 µg/mL (≈ 263 µM)

Compound: CCn1c2c(c(=O)[nH]c1=O)C1(C(=O)Nc3ccc(Cl)cc31)c1c(n(CC)c(=O)[nH]c1=O)N2 [Compound 7b, 5-Chloro-1′,9′-diethyl-1′H-spiro[indoline-3,5′-pyrido[2,3-d:6,5-d′]dipyrimidine]-2,2′,4′, 6′,8′(3′H,7′H,9′H,10′H)-pentaone]
- melting point: > 300 °C
- IC50 (MCF7): 171 ± 22.8 µg/mL (≈ 374 µM)

Compound: Cn1c2c(c(=O)[nH]c1=S)C1(C(=O)Nc3ccc(Cl)cc31)c1c(n(C)c(=S)[nH]c1=O)N2 [Compound 7c, 5-Chloro-1′,9′-dimethyl-2′,8′-dithioxo-2′,3′,8′,9′-tetrahydro-1′H-spiro[indoline-3,5′-pyrido [2,3-d:6,5-d′]dipyrimidine]-2,4′,6′(7′H,10′H)-trione]
- melting point: > 300 °C

Compound: O=C1Nc2ccc(Cl)cc2C12c1c(n(Cc3ccccc3)c(=O)[nH]c1=O)Nc1c2c(=O)[nH]c(=O)n1Cc1ccccc1 [Compound 7d, 1′,9′-Dibenzyl-5-chloro-1′H-spiro[indoline-3,5′-pyrido[2,3-d:6,5-d′]dipyrimidine]-2,2′,4′, 6′,8′(3′H,7′H,9′H,10′H)-pentaone]
- IC50 (Topo II): 2660 nM
- IC50 (A-549): 329 ± 12.5 µg/mL (≈ 566 µM)
- IC50 (HepG2): 91.4 ± 11.3 µg/mL (≈ 157 µM)
- formation of linear DNA (DNA): considerable formation of linear DNA
- IC50 (Topo I): 419 nM

Compound: O=C1Nc2ccc(Cl)cc2C12c1c([nH]c(=O)[nH]c1=O)Nc1[nH]c(=O)[nH]c(=O)c12 [Compound 7e, 5-Chloro-1′H-spiro[indoline-3,5′-pyrido[2,3-d:6,5-d′]dipyrimidine]-2,2′,4′,6′,8′(3′H,7′H,-9′H,10′H)-pentaone]
- IC50 (HCT-116): 435 ± 39.5 µg/mL (≈ 1080 µM)
- IC50 (HepG2): 89.7 ± 6.5 µg/mL (≈ 224 µM)
- IC50 (Caco-2): 472 ± 23.6 µg/mL (≈ 1180 µM)

Compound: Cn1c2c(c(=O)[nH]c1=O)C1(C(=O)Nc3ccc(F)cc31)c1c(n(C)c(=O)[nH]c1=O)N2 [Compound 9b, 5-Fluoro-1′,9′-dimethyl-1′H-spiro[indoline-3,5′-pyrido[2,3-d:6,5-d′]dipyrimidine]-2,2′,4′,6′,8′(3′H,7′H,9′H,10′H)-pentaone]
- IC50 (A-549): 293 ± 15.4 µg/mL (≈ 710 µM)
- IC50 (HepG2): 86.4 ± 7.4 µg/mL (≈ 210 µM)
- melting point: > 300 °C
- IC50 (Caco-2): 492 ± 40.4 µg/mL (≈ 1190 µM)

Compound: COc1cccc2c1C(=O)c1c(O)c3c(c(O)c1C2=O)C[C@@](O)(C(=O)CO)C[C@@H]3O[C@H]1C[C@H](N)[C@H](O)[C@H](C)O1 [Dox, doxorubicin, reference compound]
- IC50 (A-549): 0.04 ± 0.003 µg/mL (≈ 0.0736 µM)
- IC50 (HCT-116): 1.1 ± 0.1 µg/mL (≈ 2.02 µM)
- IC50 [1]: 0.3 ± 0.01 µg/mL (≈ 0.552 µM)
- IC50 (HepG2): 0.3 ± 0.01 µg/mL (≈ 0.552 µM)
- IC50 (Caco-2): 3.7 ± 0.2 µg/mL (≈ 6.81 µM)
- IC50 (MCF7): 5.9 ± 0.5 µg/mL (≈ 10.9 µM)
